Source: patent US20250195521A1 (Revolution Medicines, Inc., priority 2020, published 2025)

Assays:
[1] = target: KRAS G13C (Homo sapiens (Human), UniProt P01116+P62937, G13C); experiment: Ras-Raf disruption/FRET/MOA assay (BRAF RBD, Cyclophilin A); assay type: biochemical; conditions: read-out: KRAS G13C FRET IC50
Method in brief: (§1)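 TR-FRET read after 1.5 h with 10 nM anti-His Eu-W1024 and 50 nM anti-GST APC, following 3 h at 25 °C of GMPPNP-loaded His6-Ras (12.5 nM), GST-BRAF RBD (50 nM) and Cyclophilin A (25 μM) with compound from 30 μM final, 10 points, 3-fold. IC50 reported; pH 7.3 HEPES, 100 mM NaCl.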

[2] = target: KRAS G12V (Homo sapiens (Human), UniProt P01116+P62937, G12V); experiment: as above; assay type: biochemical; conditions: read-out: KRAS G12V FRET IC50
Method in brief: as §1

[3] = target: KRAS G12D (Homo sapiens (Human), UniProt P01116+P62937, G12D); experiment: as above; assay type: biochemical; conditions: read-out: KRAS G12D FRET IC50
Method in brief: as §1

[4] = target: NRAS G12C (Homo sapiens (Human), UniProt P01111+P62937, G12C); experiment: as above; assay type: biochemical; conditions: read-out: NRAS G12C FRET data IC50
Method in brief: as §1

[5] = target: KRAS G13D (Homo sapiens (Human), UniProt P01116+P62937, G13D); experiment: as above; assay type: biochemical; conditions: read-out: KRAS G13D FRET data IC50
Method in brief: as §1

[6] = target: KRAS G12S (Homo sapiens (Human), UniProt P01116+P62937, G12S); experiment: as above; assay type: biochemical; conditions: read-out: KRAS G12S FRET IC50
Method in brief: as §1

[7] = target: KRAS WT (Homo sapiens (Human), UniProt P01116+P62937); experiment: as above; assay type: biochemical; conditions: read-out: KRAS WT FRET data IC50
Method in brief: as §1

[8] = target: KRAS G12C (Homo sapiens (Human), UniProt P01116+P62937, G12C); experiment: as above; assay type: biochemical; conditions: read-out: KRAS G12C FRET IC50
Method in brief: as §1

[9] = tested on: K-Ras G12C (NCI-H358 cells); experiment: Potency assay: pERK in NCI-H358 cells; assay type: cell-based, human; conditions: Homo sapiens; NCI-H358 cells, 4 hours; read-out: pERK EC50 (H358 KRAS G12C)
Method in brief: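 Cells plated the day before were exposed for 4 h at 37° C, 5% CO2 to a 10-point, 3-fold DMSO dilution series (10 mM top stock), in duplicate. Phospho-ERK was read by AlphaLISA SureFire Ultra or by In-Cell Western with DRAQ5 DNA stain, and IC50 came from a 4-parameter sigmoidal fit.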

[10] = tested on: NCI-H358 cells (K-Ras G12C); experiment: CellTiter-Glo cell viability, NCI-H358; assay type: cell-based, human; conditions: Homo sapiens, NCI-H358, 120 h, K-Ras G12C, 5-day treatment; read-out: H358 Cell Viability IC50
Method in brief: (§2)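 Endpoint: CellTiter-Glo luminescence on day 5, following ~30 min at room temperature. Data as (sample/mean DMSO)×100, four-parameter logistic fit.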

[11] = tested on: NCI-H358 (K-Ras G12C); experiment: CellTiter-Glo cell viability assay, NCI-H358; assay type: cell-based, human; conditions: Homo sapiens, NCI-H358, 120 h, 5-day treatment; read-out: H358 Cell Viability assay data (K-Ras G12C, IC50)
Method in brief: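 After direct compound addition, plates were incubated to day 5 and equilibrated at room temperature for about 30 minutes before CellTiter-Glo reading. Values derive from luminescence relative to the DMSO mean, fitted with a four-parameter logistic model.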

[12] = tested on: Capan-1 cells (K-Ras G12V); experiment: CellTiter-Glo cell viability, Capan-1; assay type: cell-based, human; conditions: Homo sapiens, CAPAN-1, 120 h, K-Ras G12V, 5-day treatment; read-out: Capan-1 Cell Viability IC50
Method in brief: as §2

Chain of KRAS WT (P01116 other isoform, or with tags, fused parts or gaps): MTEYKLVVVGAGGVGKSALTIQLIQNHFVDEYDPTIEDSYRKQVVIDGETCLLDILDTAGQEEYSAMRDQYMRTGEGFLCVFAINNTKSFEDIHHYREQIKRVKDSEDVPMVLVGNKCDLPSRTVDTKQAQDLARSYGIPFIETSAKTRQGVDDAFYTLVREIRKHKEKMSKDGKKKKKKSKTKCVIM
Chain of KRAS WT (P62937 whole entry): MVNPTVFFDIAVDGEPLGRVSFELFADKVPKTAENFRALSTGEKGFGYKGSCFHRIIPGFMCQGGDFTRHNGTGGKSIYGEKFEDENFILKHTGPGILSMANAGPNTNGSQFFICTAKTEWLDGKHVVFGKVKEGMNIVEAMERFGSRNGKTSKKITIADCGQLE
Chain of KRAS G12V (P01116 other isoform, or with tags, fused parts or gaps G12V): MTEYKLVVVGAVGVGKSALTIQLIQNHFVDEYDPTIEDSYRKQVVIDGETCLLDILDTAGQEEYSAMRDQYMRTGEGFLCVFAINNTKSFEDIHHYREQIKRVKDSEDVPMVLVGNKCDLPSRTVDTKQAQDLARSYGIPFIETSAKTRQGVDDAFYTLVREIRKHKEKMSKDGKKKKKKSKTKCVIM
Chain of KRAS G12V (P62937 whole entry): as the sequence (P62937 whole entry) above
Chain of KRAS G12S (P01116 other isoform, or with tags, fused parts or gaps G12S): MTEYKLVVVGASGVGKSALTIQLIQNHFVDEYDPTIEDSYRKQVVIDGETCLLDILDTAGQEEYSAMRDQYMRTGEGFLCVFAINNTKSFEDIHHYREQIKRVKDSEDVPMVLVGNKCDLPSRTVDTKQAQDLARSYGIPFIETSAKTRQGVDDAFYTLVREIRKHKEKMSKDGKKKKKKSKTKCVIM
Chain of KRAS G12S (P62937 whole entry): as the sequence (P62937 whole entry) above
Chain of KRAS G13C (P01116 other isoform, or with tags, fused parts or gaps G13C): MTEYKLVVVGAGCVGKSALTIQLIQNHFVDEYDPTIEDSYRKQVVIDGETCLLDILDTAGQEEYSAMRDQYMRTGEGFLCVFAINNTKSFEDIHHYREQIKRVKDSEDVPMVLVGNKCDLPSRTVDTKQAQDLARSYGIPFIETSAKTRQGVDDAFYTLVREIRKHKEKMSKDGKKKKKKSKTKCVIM
Chain of KRAS G13C (P62937 whole entry): as the sequence (P62937 whole entry) above
Chain of NRAS G12C (P01111 whole entry G12C): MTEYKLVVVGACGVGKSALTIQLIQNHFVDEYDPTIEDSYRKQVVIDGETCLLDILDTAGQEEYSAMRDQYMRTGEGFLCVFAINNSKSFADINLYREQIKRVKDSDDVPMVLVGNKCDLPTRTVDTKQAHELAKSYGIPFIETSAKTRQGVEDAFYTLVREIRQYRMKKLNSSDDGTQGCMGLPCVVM
Chain of NRAS G12C (P62937 whole entry): as the sequence (P62937 whole entry) above
Chain of KRAS G13D (P01116 other isoform, or with tags, fused parts or gaps G13D): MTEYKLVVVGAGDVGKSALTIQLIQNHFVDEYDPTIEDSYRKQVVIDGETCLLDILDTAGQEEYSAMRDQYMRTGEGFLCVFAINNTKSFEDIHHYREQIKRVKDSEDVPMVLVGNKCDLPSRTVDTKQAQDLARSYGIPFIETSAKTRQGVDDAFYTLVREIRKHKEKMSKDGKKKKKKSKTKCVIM
Chain of KRAS G13D (P62937 whole entry): as the sequence (P62937 whole entry) above
Chain of KRAS G12C (P01116-2 other isoform, or with tags, fused parts or gaps G12C): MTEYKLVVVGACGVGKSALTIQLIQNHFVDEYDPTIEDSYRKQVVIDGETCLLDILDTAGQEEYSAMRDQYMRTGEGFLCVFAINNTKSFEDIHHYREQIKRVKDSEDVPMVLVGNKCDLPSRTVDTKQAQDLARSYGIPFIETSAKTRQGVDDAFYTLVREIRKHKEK
Chain of KRAS G12C (P62937 whole entry): as the sequence (P62937 whole entry) above
Chain of KRAS G12D (P01116 other isoform, or with tags, fused parts or gaps G12D): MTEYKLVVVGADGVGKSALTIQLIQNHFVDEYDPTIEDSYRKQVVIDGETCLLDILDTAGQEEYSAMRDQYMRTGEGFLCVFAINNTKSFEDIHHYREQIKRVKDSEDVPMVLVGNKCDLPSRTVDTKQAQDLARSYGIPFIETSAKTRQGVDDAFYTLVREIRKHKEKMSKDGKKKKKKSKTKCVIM
Chain of KRAS G12D (P62937 whole entry): as the sequence (P62937 whole entry) above

SMILES | IC50 [1] [nM] | IC50 [2] [nM] | IC50 [3] [nM] | IC50 [4] [nM] | IC50 [5] [nM] | IC50 [6] [nM] | IC50 [7] [nM] | IC50 [8] [nM] | EC50 [9] [nM] | IC50 [10] [nM] | IC50 [11] [nM] | IC50 [12] [nM]
CCn1c(-c2cnccc2COC)c2c3cc(ccc31)-c1cc(O)cc(c1)C[C@H](NC(=O)[C@H](C(C)C)N(C)C(=O)[C@H]1CCN(C(=O)CO)C1)C(=O)N1CCC[C@H](N1)C(=O)OCC(C)(C)C2 [Compound A20] | 100 to 1000 | 100 to 1000 | 1000 to 10000 | 100 to 1000 | 100 to 1000 | 100 to 1000 | 100 to 1000 | 10 to 100 | < 5000 | 1000 to 10000 | 10 to 100 | –
CCn1c(-c2cnccc2COC)c2c3cc(ccc31)-c1cc(O)cc(c1)C[C@H](NC(=O)[C@H](C(C)C)N(C)C(=O)[C@H]1CCN(C[C@@H](C)O)C1)C(=O)N1CCC[C@H](N1)C(=O)OCC(C)(C)C2 [Compound A31] | 10 to 100 | 1000 to 10000 | 100 to 1000 | 100 to 1000 | 100 to 1000 | 100 to 1000 | 100 to 1000 | 100 to 1000 | < 5000 | > 10000 | 10 to 100 | –
CCn1c(-c2cnccc2COC)c2c3cc(ccc31)-c1cc(O)cc(c1)C[C@H](NC(=O)[C@H](C(C)C)N(C)C(=O)[C@H]1CCN(C3CCOCC3)C1)C(=O)N1CCC[C@H](N1)C(=O)OCC(C)(C)C2 [Compound A45] | 100 to 1000 | > 10000 | 100 to 1000 | 1000 to 10000 | 10 to 100 | 100 to 1000 | 100 to 1000 | 100 to 1000 | < 5000 | 1000 to 10000 | 10 to 100 | –
CCn1c(-c2cnccc2COC)c2c3cc(ccc31)-c1cc(O)cc(c1)C[C@H](NC(=O)[C@H](C(C)C)N(C)C(=O)[C@H]1CCN(C[C@H](C)O)C1)C(=O)N1CCC[C@H](N1)C(=O)OCC(C)(C)C2 [Compound A47] | 100 to 1000 | > 10000 | 1000 to 10000 | 100 to 1000 | 100 to 1000 | 100 to 1000 | 100 to 1000 | 100 to 1000 | < 5000 | > 10000 | 10 to 100 | –
CCn1c(-c2cnccc2COC)c2c3cc(ccc31)-c1cc(O)cc(c1)C[C@H](NC(=O)[C@@H](NC(C)=O)C(C)C)C(=O)N1CCC[C@H](N1)C(=O)OCC(C)(C)C2 [Compound A58] | 1000 to 10000 | 1000 to 10000 | > 10000 | 1000 to 10000 | 1000 to 10000 | 1000 to 10000 | 1000 to 10000 | 1000 to 10000 | < 5000 | 1000 to 10000 | 10 to 100 | –
CCn1c(-c2cnccc2COC)c2c3cc(ccc31)-c1cc(O)cc(c1)C[C@H](NC(=O)[C@H](C(C)C)N(C)C(=O)c1ncc[nH]1)C(=O)N1CCC[C@H](N1)C(=O)OCC(C)(C)C2 [Compound A64] | 1000 to 10000 | 100 to 1000 | 1000 to 10000 | 100 to 1000 | 100 to 1000 | 100 to 1000 | 100 to 1000 | 100 to 1000 | < 5000 | 100 to 1000 | 10 to 100 | –
CCn1c(-c2cnccc2COC)c2c3cc(ccc31)-c1cc(O)cc(c1)C[C@H](NC(=O)[C@H](C(C)C)N(C)C(=O)CNC(=N)N)C(=O)N1CCC[C@H](N1)C(=O)OCC(C)(C)C2 [Compound A68] | 10 to 100 | 100 to 1000 | 100 to 1000 | 100 to 1000 | 100 to 1000 | 10 to 100 | 100 to 1000 | 10 to 100 | – | > 10000 | 100 to 1000 | –
CCn1c(-c2cnccc2COC)c2c3cc(ccc31)-c1cc(O)cc(c1)C[C@H](NC(=O)[C@H](C(C)C)N(C)C(=O)[C@@H](C)O)C(=O)N1CCC[C@H](N1)C(=O)OCC(C)(C)C2 [Compound A92] | 100 to 1000 | 1000 to 10000 | 1000 to 10000 | 1000 to 10000 | 1000 to 10000 | 1000 to 10000 | 1000 to 10000 | 1000 to 10000 | – | 1000 to 10000 | 100 to 1000 | > 10000
CCn1c(-c2cccnc2[C@H](C)OC)c2c3cc(ccc31)-c1cc(O)cc(c1)C[C@H](NC(=O)[C@H](C(C)C)N(C)C(=O)C13CCC(CC1)O3)C(=O)N1CCC[C@H](N1)C(=O)OCC(C)(C)C2 [Compound A412] | 100 to 1000 | 100 to 1000 | 100 to 1000 | 100 to 1000 | 100 to 1000 | 100 to 1000 | 10 to 100 | 10 to 100 | < 5000 | 100 to 1000 | – | 100 to 1000
CCn1c(-c2cccnc2[C@H](C)OC)c2c3cc(ccc31)-c1cc(O)cc(c1)C[C@H](NC(=O)[C@H](C(C)C)N(C)C(=O)C1CC3(CCOCC3)CO1)C(=O)N1CCC[C@H](N1)C(=O)OCC(C)(C)C2 (stereo partly drawn) [Compound A413] | 10 to 100 | 100 to 1000 | 100 to 1000 | 10 to 100 | 100 to 1000 | 100 to 1000 | 10 to 100 | 10 to 100 | < 5000 | 100 to 1000 | – | 100 to 1000
CCn1c(-c2cccnc2[C@H](C)OC)c2c3cc(ccc31)-c1cc(O)cc(c1)C[C@H](NC(=O)[C@H](C(C)C)N(C)C(=O)[C@H]1CC[C@@H](C(N)=O)O1)C(=O)N1CCC[C@H](N1)C(=O)OCC(C)(C)C2 [Compound A414] | 10 to 100 | 100 to 1000 | 100 to 1000 | 10 to 100 | 100 to 1000 | 10 to 100 | 100 to 1000 | 10 to 100 | < 5000 | 100 to 1000 | – | 1000 to 10000
CCn1c(-c2cccnc2[C@H](C)OC)c2c3cc(ccc31)-c1cc(O)cc(c1)C[C@H](NC(=O)[C@H](C(C)C)N(C)C(=O)C1(C(F)F)CCCO1)C(=O)N1CCC[C@H](N1)C(=O)OCC(C)(C)C2 (stereo partly drawn) [Compound A416] | 100 to 1000 | 100 to 1000 | 100 to 1000 | 100 to 1000 | 100 to 1000 | 100 to 1000 | 100 to 1000 | 100 to 1000 | < 5000 | 100 to 1000 | – | 100 to 1000
CCn1c(-c2cccnc2[C@H](C)OC)c2c3cc(ccc31)-c1cc(O)cc(c1)C[C@H](NC(=O)[C@H](C(C)C)N(C)C(=O)[C@@H]1COC[C@@H]1N)C(=O)N1CCC[C@H](N1)C(=O)OCC(C)(C)C2 [Compound A418] | 10 to 100 | 100 to 1000 | 100 to 1000 | 10 to 100 | 100 to 1000 | 10 to 100 | 10 to 100 | 10 to 100 | < 5000 | 100 to 1000 | – | 1000 to 10000
CCn1c(-c2cccnc2[C@H](C)OC)c2c3cc(ccc31)-c1cc(O)cc(c1)C[C@H](NC(=O)[C@H](C(C)C)N(C)C(=O)[C@H]1[C@@H](N)[C@@H]3CC[C@H]1O3)C(=O)N1CCC[C@H](N1)C(=O)OCC(C)(C)C2 [Compound A421] | 10 to 100 | 1000 to 10000 | 100 to 1000 | 100 to 1000 | 100 to 1000 | 100 to 1000 | 100 to 1000 | 100 to 1000 | < 5000 | 100 to 1000 | – | 1000 to 10000
